Common to all, as to test: ≥ marks a high value that may be exact or a test limit, other limits are often not marked, values filed in µg/mL are converted to µM
Assay [1] has as its system Candida albicans ATCC 2002.
Assay [2] relates to Escherichia coli ATCC 25922.
Assay [3] relates to Pseudomonas aeruginosa CMCCB 10104.
In assay [4] the test system is Staphylococcus aureus ATCC 25923.
Assay [5] concerns Candida albicans ATCC 90028.
The subject of assay [6] is Escherichia coli ATCC 25726.
Assay [7] deals with Klebsiella pneumoniae ATCC 700603.
Assay [8] deals with Pseudomonas aeruginosa ATCC 27853.

In brackets after ≈: the same amount, converted by molar mass. A value given as a limit tells only on which side of the number the result lay.

For orientation: MIC means the lowest concentration found to suppress growth. A higher MIC goes with a less susceptible organism. For `CC[C@H](C)[C@H](NC(=O)[C@H](CC(C)C)NC(=O)[C@@H](NC(=O)[C@H](Cc1ccccc1)NC(=O)[C@@H](NC(=O)[C@@H](N)CCC(N)=O)C(C)C)[C@@H](C)O)C(=O)N[C@@H](CCCCN)C(=O)NCC(=O)N[C@@H](C)C(=O)N[C@H](C(=O)N[C@@H](CCC(N)=O)C(=O)N[C@@H](CC(C)C)C(=O)N[C@H](C(=O)N[C@@H](CCCN=C(N)N)C(=O)N[C@@H](CCCCN)C(=O)N[C@H](C(=O)N[C@@H](CC(C)C)C(=O)NCC(=O)N[C@@H](CCC(=O)O)C(=O)N[C@@H](CCC(N)=O)C(=O)O)[C@@H](C)O)[C@@H](C)CC)[C@@H](C)O` [QVFTLIKGATQLIRKTLGEQ], the MIC worked out at 3.56 µM (≈ 8 µg/mL) in assay [1], 1.78 µM (≈ 4 µg/mL) in assay [2], 7.13 µM (≈ 16 µg/mL) in assay [3] and 3.56 µM (≈ 8 µg/mL) in assay [4].

For `CC[C@H](C)[C@H](NC(=O)CN)C(=O)N[C@@H](Cc1ccccc1)C(=O)N[C@@H](CC(C)C)C(=O)N[C@@H](CCCCN)C(=O)N[C@H](C(=O)N[C@@H](CC(C)C)C(=O)NCC(=O)N[C@H](C(=O)NCC(=O)N[C@@H](CCCCN)C(=O)N[C@@H](CCCCN)C(=O)N[C@H](C(=O)N[C@@H](CC(C)C)C(=O)N[C@H]1CSSC[C@@H](C(=O)O)NC(=O)[C@H](CC(C)C)NC(=O)CNC(=O)[C@H](CO)NC(=O)[C@H](C(C)C)NC(=O)CNC1=O)C(C)C)C(C)C)C(C)C` [GIFLKVLGVGKKVLCGVSGLC], the MIC in assay [1] is 5.17 µM (≈ 10.8 µg/mL); in assay [2] it was 5.17 µM (≈ 10.8 µg/mL); in assay [3] it was 10.3 µM (≈ 21.6 µg/mL); in assay [4], 2.58 µM (≈ 5.39 µg/mL).

Turning to `CC[C@H](C)[C@H](NC(=O)CNC(=O)[C@H](CCCCN)NC(=O)CNC(=O)[C@H](C)NC(=O)[C@H](Cc1ccccc1)NC(=O)[C@H](CCCCN)NC(=O)[C@H](CO)NC(=O)[C@H](Cc1ccccc1)NC(=O)[C@H](CC(C)C)NC(=O)CN)C(=O)N[C@@H](CCCCN)C(=O)N[C@@H](CC(=O)O)C(=O)N[C@@H](CC(C)C)C(=O)N[C@H](C(=O)N[C@@H](Cc1ccccc1)C(=O)N[C@@H](CCCCN)C(=O)NCC(=O)N[C@H](C(=O)N[C@@H](CCCCN)C(=O)N[C@@H](Cc1cnc[nH]1)C(=O)N[C@H](C(=O)NCC(=O)N[C@@H](CCCCN)C(=O)N[C@@H](CCC(=O)O)C(=O)N[C@H](C(=O)NCC(=O)N[C@@H](CCSC)C(=O)N[C@@H](CC(=O)O)C(=O)N[C@H](C(=O)N[C@H](C(=O)N[C@@H](CCCN=C(N)N)C(=O)N[C@H](C(=O)NCC(=O)N[C@H](C(=O)N[C@@H](CC(=O)O)C(=O)N[C@H](C(=O)N[C@@H](C)C(=O)NCC(=O)N[C@H]1CSSC[C@@H](C(=O)O)NC(=O)[C@H](CCC(=O)O)NC(=O)CNC(=O)[C@H](CCCCN)NC(=O)[C@H]([C@@H](C)CC)NC(=O)[C@H](CCCCN)NC1=O)C(C)C)[C@@H](C)CC)[C@@H](C)O)[C@@H](C)CC)C(C)C)C(C)C)[C@@H](C)CC)C(C)C)[C@@H](C)CC` [GLFSKFAGKGIKDLIFKGVKHIGKEVGMDVIRTGIDVAGCKIKGEC], the MIC in assay [1] was found to be 0.555 µM (≈ 2.7 µg/mL); in assay [2] it was 1.11 µM (≈ 5.4 µg/mL); in assay [3], 0.555 µM (≈ 2.7 µg/mL); in assay [4], 1.11 µM (≈ 5.4 µg/mL).

Consider `CC[C@H](C)[C@H](N)C(=O)N1CCC[C@H]1C(=O)N[C@@H](Cc1c[nH]c2ccccc12)C(=O)N[C@@H](CCCCN)C(=O)N[C@@H](CC(C)C)C(=O)N1CCC[C@H]1C(=O)N[C@@H](C)C(=O)N[C@H](C(=O)N[C@@H](Cc1ccccc1)C(=O)N[C@@H](CCCN=C(N)N)C(=O)N1CCC[C@H]1C(=O)N[C@H](C(=O)N[C@@H](CCC(=O)O)C(=O)N[C@@H](CCCN=C(N)N)C(=O)N1CCC[C@H]1C(=O)N[C@@H](Cc1ccccc1)C(=O)N[C@@H](CO)C(=O)N[C@@H](CCCCN)C(=O)N1CCC[C@H]1C(=O)N[C@@H](Cc1ccccc1)C(=O)N[C@@H](CS)C(=O)N[C@@H](CCCN=C(N)N)C(=O)N[C@@H](CCCCN)C(=O)N[C@@H](CC(=O)O)C(=O)O)C(C)C)[C@@H](C)O` [IPWKLPATFRPVERPFSKPFCRKD], for which the MIC in assay [1] was no less than 34.3 µM; in assay [2], greater than 34.3 µM; in assay [3], no less than 34.3 µM; in assay [4] it was 34.3 µM (≈ 100 µg/mL).

For `CC[C@H](C)[C@H](NC(=O)CN)C(=O)N[C@@H](Cc1ccccc1)C(=O)N[C@@H](CO)C(=O)N[C@@H](CCCCN)C(=O)N[C@H](C(=O)N[C@@H](CO)C(=O)NCC(=O)N[C@@H](CCCCN)C(=O)N[C@@H](C)C(=O)N[C@H](C(=O)N[C@@H](CCCCN)C(=O)N[C@@H](CC(N)=O)C(=O)N[C@@H](CC(C)C)C(=O)N[C@@H](Cc1ccccc1)C(=O)N[C@H](C(=O)N[C@@H](CCCCN)C(=O)NCC(=O)N[C@@H](C)C(=O)N[C@@H](CCCCN)C(=O)N[C@@H](CC(N)=O)C(=O)N[C@H](C(=O)NCC(=O)N[C@@H](CCCCN)C(=O)N[C@@H](CCC(=O)O)C(=O)N[C@H](C(=O)NCC(=O)N[C@@H](CCSC)C(=O)N[C@@H](CC(=O)O)C(=O)N[C@H](C(=O)N[C@H](C(=O)N[C@@H](CCCN=C(N)N)C(=O)N[C@H](C(=O)NCC(=O)N[C@@H](CCSC)C(=O)N[C@@H](CC(=O)O)C(=O)N[C@H](C(=O)N[C@H](C(=O)NCC(=O)N[C@H]1CSSC[C@@H](C(=O)O)NC(=O)[C@H](CCC(=O)O)NC(=O)CNC(=O)[C@H](CCCCN)NC(=O)[C@H]([C@@H](C)CC)NC(=O)[C@H](CCCCN)NC1=O)C(C)C)C(C)C)[C@@H](C)O)C(C)C)C(C)C)C(C)C)C(C)C)[C@@H](C)CC)[C@@H](C)CC)[C@@H](C)CC` [GIFSKISGKAIKNLFIKGAKNVGKEVGMDVVRTGMDVVGCKIKGEC], the MIC in assay [1] is 0.435 µM (≈ 2.1 µg/mL); in assay [2], 0.849 µM (≈ 4.1 µg/mL); in assay [3], 1.7 µM (≈ 8.2 µg/mL); in assay [4], 0.849 µM (≈ 4.1 µg/mL).

Turning to `CC[C@H](C)[C@H](NC(=O)CN)C(=O)N[C@@H](Cc1ccccc1)C(=O)N[C@H](C(=O)N[C@@H](CC(C)C)C(=O)N[C@H](C(=O)N[C@@H](CCCCN)C(=O)NCC(=O)N[C@@H](C)C(=O)N[C@@H](C)C(=O)N[C@@H](CCCCN)C(=O)N[C@@H](CC(C)C)C(=O)N[C@H](C(=O)NCC(=O)N[C@@H](CCCCN)C(=O)N[C@H](C(=O)N[C@H](C(=O)N[C@@H](C)C(=O)N[C@@H](CCCCN)C(=O)N[C@@H](CCC(=O)O)C(=O)N[C@@H](C)C(=O)NCC(=O)N[C@@H](CCCCN)C(=O)N[C@H](C(=O)NCC(=O)N[C@@H](CC(C)C)C(=O)N[C@@H](CCC(=O)O)C(=O)N[C@@H](CC(C)C)C(=O)N[C@@H](CCSC)C(=O)N[C@@H](C)C(=O)N[C@H]1CSSC[C@@H](C(=O)O)NC(=O)[C@H](CCC(N)=O)NC(=O)[C@H](CC(N)=O)NC(=O)[C@H]([C@@H](C)O)NC(=O)[C@H]([C@@H](C)CC)NC(=O)[C@H](CCCCN)NC1=O)[C@@H](C)O)C(C)C)[C@@H](C)O)[C@@H](C)CC)[C@@H](C)CC)[C@@H](C)O` [GIFTLIKGAAKLIGKTVAKEAGKTGLELMACKITNQC], the MIC in assay [1] turned out to be 2.22 µM (≈ 8.5 µg/mL); in assay [2] it was 2.22 µM (≈ 8.5 µg/mL); in assay [3] it was 1.13 µM (≈ 4.3 µg/mL); in assay [4] it was 1.13 µM (≈ 4.3 µg/mL).

Regarding `CC[C@H](C)[C@H](NC(=O)CNC(=O)[C@H](CCCCN)NC(=O)[C@H](C)NC(=O)[C@@H](NC(=O)[C@H](CCCCN)NC(=O)[C@H](CCCCN)NC(=O)[C@H](CC(C)C)NC(=O)[C@@H](NC(=O)[C@H](CC(=O)O)NC(=O)[C@H](CCCCN)NC(=O)[C@@H](NC(=O)[C@H](Cc1ccccc1)NC(=O)CNC(=O)[C@@H]1CCCN1C(=O)[C@@H](NC(=O)[C@H](CCCCN)NC(=O)[C@@H](N)CC(C)C)[C@@H](C)CC)C(C)C)[C@@H](C)O)C(C)C)C(=O)N[C@@H](Cc1ccccc1)C(=O)N[C@@H](CO)C(=O)N[C@@H](C)C(=O)N[C@H](C(=O)N[C@@H](C)C(=O)NCC(=O)N[C@@H](C)C(=O)N[C@@H](CCSC)C(=O)N[C@H](C(=O)N1CCC[C@H]1C(=O)N[C@@H](CO)C(=O)O)[C@@H](C)O)C(C)C` [LKIPGFVKDTLKKVAKGIFSAVAGAMTPS], the MIC in assay [5] was no less than 80 µM; in assay [6], 20 µM (≈ 59.5 µg/mL); in assay [7], 20 µM (≈ 59.5 µg/mL); in assay [8], 20 µM (≈ 59.5 µg/mL); in assay [4], 40 µM (≈ 119 µg/mL).

Regarding `CC[C@H](C)[C@H](NC(=O)[C@H](CC(C)C)NC(=O)[C@H](CC(C)C)NC(=O)[C@H](CC(=O)O)NC(=O)[C@H](CCCCN)NC(=O)[C@@H](NC(=O)[C@@H](NC(=O)CNC(=O)[C@H](CC(C)C)NC(=O)[C@@H](NC(=O)[C@@H](N)CO)C(C)C)[C@@H](C)O)C(C)C)C(=O)NCC(=O)N[C@@H](C)C(=O)NCC(=O)N[C@@H](CCCCN)C(=O)N[C@@H](CO)C(=O)N[C@@H](C)C(=O)N[C@@H](C)C(=O)N[C@@H](CCC(N)=O)C(=O)N[C@@H](CO)C(=O)N[C@H](C(=O)N[C@@H](CC(C)C)C(=O)N[C@H](C(=O)N[C@@H](C)C(=O)N[C@@H](CC(C)C)C(=O)N[C@@H](CO)C(=O)N[C@H]1CSSC[C@@H](C(=O)O)NC(=O)[C@H](CO)NC(=O)[C@H](CC(N)=O)NC(=O)[C@H](CO)NC(=O)[C@H](CC(C)C)NC(=O)[C@H](CCCCN)NC1=O)[C@@H](C)O)C(C)C` [SVLGTVKDLLIGAGKSAAQSVLTALSCKLSNSC], the MIC in assay [1] came out at 3.4 µM (≈ 11 µg/mL); in assay [2] it was 1.7 µM (≈ 5.5 µg/mL); in assay [3], 6.8 µM (≈ 22 µg/mL); in assay [4] it was 3.4 µM (≈ 11 µg/mL).

The values are drawn from DBAASP.
